Reference: patent US20160331871A1, “Medical Devices Containing Nitroprusside and Antimicrobial Agents” (Teleflex Medical Incorporated, priority 2009, published 2016)

Tested on: Pseudomonas aeruginosa
Assay: MIC/FIC determination of SNP alone and in combination with antimicrobial agents (96-well microtiter plate, OD 670 nm)
Type: cell-based, Pseudomonas aeruginosa ATCC 27853
Protocol: A few colonies of Pseudomonas aerugionsa ATCC 27853 were removed from secondary working cultures plated on Trypticase Soy Agar (hereinafter “TSA”) with 5% sheep's blood and added to 10 ml of Trypticase Soy Broth (hereinafter “TSB”). The vials were vortexed for approximately 30 seconds and incubated for 4 hours in a shaker incubator. Following incubation, they were removed and vortexed once more. The optical densities of the inoculum suspensions were read at a wavelength of 670 nm. The inoculum suspensions were subsequently diluted in sterile Cation Adjusted Mueller-Hinton Broth (hereinafter “CAMHB”) to a final concentration of 1-5×10^6 cfu/ml.
SNP was dissolved and diluted in sterile deionized water to get working concentrations of 1%, 0.9%, 0.8%, 0.7%, 0.6%, 0.5%, 0.4%, 0.3%, 0.2%, and 0.1% in the wells of a 96-well micro titer plate.
Chlorhexidine diacetate (hereinafter “CHA”) and gentian violet (hereinafter “GV”) were dissolved in sterile water. Rifampin (hereinafter “Rif”) was dissolved in dimethylsulfoxide (hereinafter “DMSO”). Silver nano particles were dispersed in sterile water.
A sterile 96 well micro titer plate was used to test the following: SNP alone and SNP in combination with CHA, GV, Rif, and Silver at concentrations as stated above. All tests were performed in triplicate.
Once all test wells had been filled, the lid of the plate was replaced and the plate was inserted into a Ziplock™ bag and sealed to reduce evaporation. Each plate was incubated without shaking at 37° C. for 18-46 hours depending on the microorganism.
After the appropriate incubation time had been met, the micro titer plate was removed from the incubator. The plate was then read on a Bio-Tek plate reader at a wavelength of 670 nm with the lid off.

Row | MIC/FIC (SNP 0% (agent alone)) | MIC/FIC (in combination with SNP 0.2%) | MIC/FIC (in combination with SNP 0.4%) | MIC/FIC (in combination with SNP 0.6%) | SMILES | inhibitory concentration in combination with SNP as compared to alone
1 | 32 PPM | 4 PPM | 4 PPM | 0 PPM | CN(C)c1ccc(C(=C2C=CC(=[N+](C)C)C=C2)c2ccc(N(C)C)cc2)cc1 [GV, gentian violet] | lower inhibitory concentrations
2 | – | – | – | – | CC(=O)O.CC(=O)O.NC(=N\CCCCCC/N=C(N)/N=C(\N)Nc1ccc(Cl)cc1)/N=C(\N)Nc1ccc(Cl)cc1 [CHA, Chlorhexidine diacetate] | lower inhibitory concentrations
3 | 16 PPM | 16 PPM | 2-4 PPM | 0 PPM | CO[C@H]1/C=C/O[C@@]2(C)Oc3c(C)c(O)c4c(O)c(c(/C=N/N5CCN(C)CC5)c(O)c4c3C2=O)NC(=O)/C(C)=C\C=C\[C@H](C)[C@H](O)[C@@H](C)[C@@H](O)[C@@H](C)[C@H](OC(C)=O)[C@@H]1C [Rifampin] | lower inhibitory concentrations

Row | SMILES | MIC/FIC (SNP 0% (agent alone)) | MIC/FIC (in combination with SNP 0.2%) | MIC/FIC (in combination with SNP 0.4%) | MIC/FIC (in combination with SNP 0.6%) | inhibitory concentration in combination with SNP as compared to alone
4 | N=C(NCCCCCCNC(=N)NC(=N)Nc1ccc(Cl)cc1)NC(=N)Nc1ccc(Cl)cc1.Nc1ccc(P(=O)(O)O)cc1.Nc1ccc(P(=O)(O)O)cc1 [CHP, chlorhexidine dipalmitate] | 4 PPM | 4 PPM | 1 PPM | 0 PPM | –
